# Measurements taken from PubChem BioAssay (NCI).
# Values joined by “and” are separate entries in the source; they are usually repeats but may differ in a detail not shown here. Identical values can stand only once.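 96-well plates; 48 h exposure; 5 concentrations. Endpoints by linear interpolation between flanking doses. Not reached: highest tested concentration assigned. GI50 is the concentration that inhibits growth by half. TGI: concentration producing complete growth inhibition.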
# System: CAKI-1 renal
# Assay: inhibition of tumour cell growth, NCI panel, 48 h
Compound,GI50,TGI
CC(C)=C[C@@H]1C[C@H](C)[C@H]2CC[C@H](C)C3=C2[C@](O)(OC3=O)[C@]1(C)O,> 100 µM,> 100 µM
O=C1c2ccccc2C(=O)C1(Cl)C1(S(=O)(=O)O)c2ccccc2-c2ccccc21,–,> 100 µM

# System: SK-MEL-2 melanoma
# Assay: inhibition of tumour cell growth, NCI panel, 48 h
Compound,TGI,GI50
O=C(CCCn1ccnc1[N+](=O)[O-])NCCn1cncc1[N+](=O)[O-],> 100 µM,–
Cn1cc(C2=C(c3ccc4ccccc4c3)C(=O)NC2=O)c2ccccc21,> 25 µM,> 25 µM
O=C(OCc1ccc2cccc(O)c2n1)N1CCN(C(=O)c2cc3cc(F)ccc3[nH]2)CC1,2.78 µM,1.35 µM
C[As](C)SC1OC(CO)C(O)C1O (centres undefined),2.92 µM,0.708 µM
Cn1c(=O)c2c(nc(Nc3cc(=O)[nH]c(=O)[nH]3)n2Cc2ccccc2)n(C)c1=O,> 100 µM,> 100 µM
COc1ccc2c(c1)CCC1C2CC[C@@]2(C)C1CC1=CC(COC(C)=O)C3C(=O)c4ccccc4C(=O)C3C12 (some centres undefined),> 100 µM,> 100 µM
C=C(F)C(=O)N1CCN(c2nc(OC[C@@H]3CCCN3C)nc3c2CCN(c2cccc4cccc(Cl)c24)C3)C[C@@H]1CC#N,2.8 µM,1.4 µM
O=C1CCCC/C(=C/c2ccccc2)N1,> 100 µM,–
CC/C(=C(/c1ccc(OCCN(C)C)cc1)c1ccc(OC(=O)CCCCC(=O)c2c(C)[nH]c(/C=C3\N=C(c4ccc[nH]4)C=C3OC)c2C)cc1)c1ccccc1,33.5 µM,16.7 µM
CC[C@]12C=CCN3CC[C@@]4(c5ccc(OC)cc5N(C)[C@H]4[C@@](O)(C(=O)OC)[C@@H]1OC(=O)CCC[P+](c1ccccc1)(c1ccccc1)c1ccccc1)[C@@H]32,1.52 µM and 1.27 µM,0.441 µM and 0.356 µM
CC(=O)OC1Oc2ccccc2-c2oc(=O)c(-c3cc(=O)oc4cc(O)ccc34)cc21 (centres undefined),89 µM,19.2 µM
CC(C)(C)C(=O)OCOP(=O)(OCOC(=O)C(C)(C)C)C1CCCN(O)C1=O (centres undefined),8.76 µM,1.55 µM
CC(SC(C)C(=O)N/N=C/c1cccc(Cl)c1)C(=O)N/N=C\c1cccc(Cl)c1 (centres undefined),25.3 µM,6.9 µM
CC(=O)O.CC(=O)O.CC(=O)O.CC(=O)O.CC(=O)O.CC(=O)O.O.[Ti].[Ti],> 100 µM,> 100 µM
COC(=O)C1=C(c2ccc3c(c2)OCO3)O[C@H](c2cc(OC)c(OC)c(OC)c2)[C@H]1COC(C)=O,> 100 µM,–
Cc1ccc(Cl)cc1Nc1nc(C(F)(F)F)ccc1C(=O)N1CCN(c2ccc(F)cc2)CC1,37.1 µM,16.1 µM
CCCCc1c(OC)cc(O)c2c1C(=O)c1[nH]c(C(=O)O)c(O)c(=O)c1C2=O,4.3 µM,–
O=C(Nc1ccc(OS(=O)(=O)c2ccccc2)cc1)C12CC3CC(CC(C3)C1)C2,> 100 µM,> 100 µM
COC(=O)c1cc2c3ccccc3n(C(C)=O)c2cn1,> 100 µM,–
O=S(=O)([O-])c1ccc2c(c1)-c1nc-2nc2[n-]c(nc3nc(nc4[n-]c(n1)c1ccc(S(=O)(=O)[O-])cc41)-c1cc(S(=O)(=O)[O-])ccc1-3)c1ccc(S(=O)(=O)[O-])cc21.[Cu+2].[Na+],> 100 µM,> 100 µM
CCN1CCN(c2ccc(Nc3cc(N(C)C(=O)Nc4c(Cl)c(OC)cc(OC)c4Cl)ncn3)cc2)CC1,22.7 µM,7.12 µM
CC(C)c1ccc(Nc2ccc3c(OCCCN4CCN(C)CC4)cccc3n2)cc1,36.5 µM,19.6 µM
CCCCOC(=O)C1C(c2ccc(Cl)cc2)NC(c2ccc(Cl)cc2)C(C(=O)OCCCC)S1(=O)=O (centres undefined),> 100 µM,–
Cc1cc(Br)cc(C)c1NC(=O)C(=O)C(C(=O)c1ccc2ccccc2c1)C1OC(=O)c2ccccc21 (centres undefined),34.5 µM,–
COc1ccc2c(c1)C(C)Cc1c(Cl)ncnc1N2C (centres undefined),2.12 µM,0.405 µM
CC(C)=C[C@@H]1C[C@H](C)[C@H]2CC[C@H](C)C3=C2[C@](O)(OC3=O)[C@]1(C)O,> 100 µM,> 100 µM

# System: M14 melanoma
# Assay: inhibition of tumour cell growth, NCI panel, 48 h
Compound,TGI,GI50
O=C(CCCn1ccnc1[N+](=O)[O-])NCCn1cncc1[N+](=O)[O-],> 100 µM,–
Cn1cc(C2=C(c3ccc4ccccc4c3)C(=O)NC2=O)c2ccccc21,> 25 µM,> 21 µM
O=C(OCc1ccc2cccc(O)c2n1)N1CCN(C(=O)c2cc3cc(F)ccc3[nH]2)CC1,2.5 µM,1.13 µM
C[As](C)SC1OC(CO)C(O)C1O (centres undefined),0.767 µM,0.232 µM
Cn1c(=O)c2c(nc(Nc3cc(=O)[nH]c(=O)[nH]3)n2Cc2ccccc2)n(C)c1=O,> 100 µM,> 100 µM
COc1ccc2c(c1)CCC1C2CC[C@@]2(C)C1CC1=CC(COC(C)=O)C3C(=O)c4ccccc4C(=O)C3C12 (some centres undefined),> 100 µM,> 100 µM
C=C(F)C(=O)N1CCN(c2nc(OC[C@@H]3CCCN3C)nc3c2CCN(c2cccc4cccc(Cl)c24)C3)C[C@@H]1CC#N,2.34 µM,1.06 µM
O=C1CCCC/C(=C/c2ccccc2)N1,> 100 µM,–
CC/C(=C(/c1ccc(OCCN(C)C)cc1)c1ccc(OC(=O)CCCCC(=O)c2c(C)[nH]c(/C=C3\N=C(c4ccc[nH]4)C=C3OC)c2C)cc1)c1ccccc1,4 µM,1.84 µM
CC[C@]12C=CCN3CC[C@@]4(c5ccc(OC)cc5N(C)[C@H]4[C@@](O)(C(=O)OC)[C@@H]1OC(=O)CCC[P+](c1ccccc1)(c1ccccc1)c1ccccc1)[C@@H]32,2.93 µM and 2.85 µM,0.762 µM and 1.05 µM
CC(=O)OC1Oc2ccccc2-c2oc(=O)c(-c3cc(=O)oc4cc(O)ccc34)cc21 (centres undefined),83.9 µM,26.7 µM
CC(C)(C)C(=O)OCOP(=O)(OCOC(=O)C(C)(C)C)C1CCCN(O)C1=O (centres undefined),14.1 µM,0.693 µM
CC(SC(C)C(=O)N/N=C/c1cccc(Cl)c1)C(=O)N/N=C\c1cccc(Cl)c1 (centres undefined),35.5 µM,14.1 µM
CC(=O)O.CC(=O)O.CC(=O)O.CC(=O)O.CC(=O)O.CC(=O)O.O.[Ti].[Ti],> 100 µM,> 100 µM
COC(=O)C1=C(c2ccc3c(c2)OCO3)O[C@H](c2cc(OC)c(OC)c(OC)c2)[C@H]1COC(C)=O,13.6 µM,–
Cc1ccc(Cl)cc1Nc1nc(C(F)(F)F)ccc1C(=O)N1CCN(c2ccc(F)cc2)CC1,31.3 µM,15 µM
CCCCc1c(OC)cc(O)c2c1C(=O)c1[nH]c(C(=O)O)c(O)c(=O)c1C2=O,34.3 µM,–
O=C(Nc1ccc(OS(=O)(=O)c2ccccc2)cc1)C12CC3CC(CC(C3)C1)C2,> 100 µM,7.2 µM
COC(=O)c1cc2c3ccccc3n(C(C)=O)c2cn1,> 100 µM,–
O=S(=O)([O-])c1ccc2c(c1)-c1nc-2nc2[n-]c(nc3nc(nc4[n-]c(n1)c1ccc(S(=O)(=O)[O-])cc41)-c1cc(S(=O)(=O)[O-])ccc1-3)c1ccc(S(=O)(=O)[O-])cc21.[Cu+2].[Na+],> 100 µM,> 37.4 µM
CCN1CCN(c2ccc(Nc3cc(N(C)C(=O)Nc4c(Cl)c(OC)cc(OC)c4Cl)ncn3)cc2)CC1,3.1 µM,1.45 µM
CC(C)c1ccc(Nc2ccc3c(OCCCN4CCN(C)CC4)cccc3n2)cc1,10.4 µM,2.85 µM
CCCCOC(=O)C1C(c2ccc(Cl)cc2)NC(c2ccc(Cl)cc2)C(C(=O)OCCCC)S1(=O)=O (centres undefined),> 100 µM,–
Cc1cc(Br)cc(C)c1NC(=O)C(=O)C(C(=O)c1ccc2ccccc2c1)C1OC(=O)c2ccccc21 (centres undefined),30.2 µM,–
COc1ccc2c(c1)C(C)Cc1c(Cl)ncnc1N2C (centres undefined),7.99 µM,0.345 µM
CC(C)=C[C@@H]1C[C@H](C)[C@H]2CC[C@H](C)C3=C2[C@](O)(OC3=O)[C@]1(C)O,> 100 µM,> 100 µM
O=C1c2ccccc2C(=O)C1(Cl)C1(S(=O)(=O)O)c2ccccc2-c2ccccc21,> 100 µM,–

# System: NCI-H23 lung
# Assay: inhibition of tumour cell growth, NCI panel, 48 h
Compound,TGI,GI50
O=C(CCCn1ccnc1[N+](=O)[O-])NCCn1cncc1[N+](=O)[O-],> 100 µM,–
Cn1cc(C2=C(c3ccc4ccccc4c3)C(=O)NC2=O)c2ccccc21,> 25 µM,> 25 µM
O=C(OCc1ccc2cccc(O)c2n1)N1CCN(C(=O)c2cc3cc(F)ccc3[nH]2)CC1,3.45 µM,1.62 µM
C[As](C)SC1OC(CO)C(O)C1O (centres undefined),3.89 µM,0.61 µM
Cn1c(=O)c2c(nc(Nc3cc(=O)[nH]c(=O)[nH]3)n2Cc2ccccc2)n(C)c1=O,> 100 µM,> 100 µM
COc1ccc2c(c1)CCC1C2CC[C@@]2(C)C1CC1=CC(COC(C)=O)C3C(=O)c4ccccc4C(=O)C3C12 (some centres undefined),> 100 µM,> 100 µM
C=C(F)C(=O)N1CCN(c2nc(OC[C@@H]3CCCN3C)nc3c2CCN(c2cccc4cccc(Cl)c24)C3)C[C@@H]1CC#N,1.58 µM,< 0.01 µM
O=C1CCCC/C(=C/c2ccccc2)N1,> 100 µM,–
CC/C(=C(/c1ccc(OCCN(C)C)cc1)c1ccc(OC(=O)CCCCC(=O)c2c(C)[nH]c(/C=C3\N=C(c4ccc[nH]4)C=C3OC)c2C)cc1)c1ccccc1,29.7 µM,12.7 µM
CC[C@]12C=CCN3CC[C@@]4(c5ccc(OC)cc5N(C)[C@H]4[C@@](O)(C(=O)OC)[C@@H]1OC(=O)CCC[P+](c1ccccc1)(c1ccccc1)c1ccccc1)[C@@H]32,5.5 µM and 7.77 µM,1.11 µM and 0.984 µM
CC(=O)OC1Oc2ccccc2-c2oc(=O)c(-c3cc(=O)oc4cc(O)ccc34)cc21 (centres undefined),25.6 µM,5.53 µM
